# From patent US20250179047A1, “5-[7-(3,4-DIHYDRO-1H-ISOQUINOLINE-2-CARBONYL)-1,2,3,4 TETRAHYDROISOQUINOLIN-6-YL]-1H-PYRROLE-3-CARBOXAMIDE DERIVATIVES, PHARMACEUTICAL COMPOSITIONS CONTAINING THEM AND THEIR USES AS PRO-APOPTOTIC AGENTS” (LES LABORATOIRES SERVIER, priority 2022, published 2025)
# Where two headings read alike, the source gives them in different places.
# How the values were obtained:
# [1] = target: BCL2 WT (Homo sapiens (Human), UniProt P10415); experiment: TR-FRET competitive binding assay, BCL2 WT
# Experimental: (§1) The relative binding potency of each compound was determined in a competitive binding assay using time resolved-fluorescence resonance energy transfer (TR-FRET). The method utilised a fluorescein labelled peptide derived from PUMA (5Flu-Ahx-[…]-NH2 wherein Ahx means 6-hexanoic acid monomer and the amino acid sequence is referred to as SEQ ID:01) which binds to a terbium labelled BCL2 or BCLXL protein. The degree of binding or corresponding compound inhibition can be quantified by the TR-FRET signal between the terbium donor and fluorescein acceptor.
# (§2) The human BCL2_wild-type (also named BCL2_wt), BCL2_G101V mutant and BCLXL_wild-type were E. coli expressed as a N-terminal Halo-fusion proteins and singly labelled with Terbium on the Halo protein to afford the following amino acid sequences:
# (§3) wherein the BCL2(1-207) sequence corresponds to UniProtKB® primary accession number P10415 and the BCLXL(2-196) sequence corresponds to UniProtKB® primary accession number Q07817-1.
# (§4) The assay was performed in a 40 μL volume in white 384-standard well plates (Corning #3574). An 11-point serial dilution of each compound was prepared in DMSO and transferred directly to plate followed by addition of fluorescein labelled peptide and lastly protein. Final assay conditions were 0.5 nM BCL2_wt, BCL2_G101V, BCL2_D103Y, BCL2_F104I, BCL2_D111A or BCLXL_wt, 2 or 20 nM fluorescein labelled peptide, 50 mM Hepes pH 7.5, 150 mM NaCl, 0.5 mM TCEP (Tris(2-carboxyethyl)phosphine), 0.05% Tween 20, 5% DMSO. The mixture was incubated for 2 hours at 23° C.
# (§5) TR-FRET measurements were performed on a Biotek Synergy Neo plate reader. TR-FRET was measured by excitation of the Terbium-donor at 340 nm and subsequent (delay time 100 μs) measurement of terbium and fluorescein emission at 495 nm and 520 nm, respectively, over a collection time of 300 μs. The TR-FRET signal was calculated as the emission-ratio at 520 nm over 495 nm.
# (§6) The TR-FRET ratio readout for test compounds was normalized against 0% inhibition controls wells and 100% inhibition control wells. Test compound potency (IC50) was estimated by nonlinear regression using the sigmoidal dose-response (variable slope) using Xlfit 4 (IDBS, Guildford, Surrey, UK, model 205). Were the IC50 could not be determined the % inhibition at the highest tested concentration is given.
# (§7) y=(A+((B−A)/(1+((C/x)^D))))
# (§8) where y is the normalized TR-TRET ratio measurement for a given concentration of test compound, x is the concentration of test compound, A is the estimated efficacy (% inhibition) at infinite compound dilution, and B is the maximal efficacy (% inhibition). C is the IC50 value and D is the Hill slope coefficient.
# (§9) The K1 values were determined from the IC50 values according to Cer et al, Nucleic Acids Res, 2009, July 1; 37 (WebServer issue): W441-W445.
# [2] = target: BCL2 G101V (Homo sapiens, UniProt P10415, G101V); experiment: TR-FRET competitive binding assay, BCL2 G101V; settings: BCL2 G101V; Ki determined from IC50; read-out: TR_FRET EKI_Bcl2 G101V
# Experimental: as §1, §2, §3, §4, §5, §6, §7, §8, §9
# [3] = test system: BCL2 G101V; experiment: TR-FRET competitive binding assay, BCL2 G101V; set-up: species or system human; settings: for TR_FRET EKI G101V/WT selectivty ratio: ratio Ki BCL2 G101V / Ki BCL2 WT; for TR_FRET EKI G101V/WT selectivty: ratio of Ki BCL2 G101V to BCL2 WT
# Experimental: as §1, §2, §3, §4, §5, §6, §7, §8, §9
# [4] = target: BCL2 D103Y (Homo sapiens, UniProt P10415, D103Y); experiment: TR-FRET competitive binding assay, BCL2 D103Y; settings: Ki determined from IC50, read-out: TR_FRET EKI_Bcl2 D103Y
# Experimental: as §1, §2, §3, §4, §5, §6, §7, §8, §9
# [5] = target: BCLXL WT (Homo sapiens (Human), UniProt Q07817); experiment: TR-FRET competitive binding assay, BCLXL WT; settings: for Ki: BCLXL WT, Ki determined from IC50, read-out: TR_FRET EKI BclxL; for TR_FRET EKI BCLxL/WT selectivty ratio: ratio Ki BCLxL / Ki BCL2 WT; for TR_FRET EKI BCLxL/WT selectivty: ratio of Ki BCLxL to BCL2 WT
# BCLXL WT, sequence (Q07817 other isoform, or with tags, fused parts or gaps): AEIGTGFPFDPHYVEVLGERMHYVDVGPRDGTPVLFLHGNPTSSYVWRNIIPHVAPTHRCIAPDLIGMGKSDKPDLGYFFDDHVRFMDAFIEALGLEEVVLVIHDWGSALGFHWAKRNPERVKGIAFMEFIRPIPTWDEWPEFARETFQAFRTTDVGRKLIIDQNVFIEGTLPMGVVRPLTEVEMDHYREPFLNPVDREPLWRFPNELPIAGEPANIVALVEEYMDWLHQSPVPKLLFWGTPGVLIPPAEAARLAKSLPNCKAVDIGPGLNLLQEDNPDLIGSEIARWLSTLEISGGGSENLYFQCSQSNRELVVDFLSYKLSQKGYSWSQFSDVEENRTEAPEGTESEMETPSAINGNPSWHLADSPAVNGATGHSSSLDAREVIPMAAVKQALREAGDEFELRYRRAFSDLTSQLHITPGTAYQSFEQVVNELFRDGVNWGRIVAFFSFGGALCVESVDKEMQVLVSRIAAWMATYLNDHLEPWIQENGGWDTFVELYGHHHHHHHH
# Experimental: as §1, §2, §3, §4, §5, §6, §7, §8, §9
# [6] = test system: KMS-12-PE Bcl-2 WT; experiment: In vitro cytotoxicity CellTiter-Glo 48 h, KMS-12-PE Bcl-2 WT; assay type: cell-based; settings: Homo sapiens, KMS-12-PE, C50 = concentration needed to reach 50% of the cellular viability
# Experimental: KMS-12-PE (ACC 606) were purchased from the Leibniz-Institute DSMZ (Braunschweig, Germany) and were grown at 37° C. in a humidified atmosphere with […] in media recommended by the suppliers. Lentiviral particles containing Bcl-2 wild type (also named “Bcl2 WT”) and Bcl-2 mutated on G101V (also named “Bcl2 G101V”) were cloned into pcLV-CMV-DEST-IRES-TagRFP. Lentiviral particles (1×106) were mixed with Polybrene at 8 µg/ml and transduced by spinoculation for 1 h at 32° C. and incubated overnight. After 8 days, TagRFP positive-cells were sorted by FACS. BCL2 expression was monitored by immunoblotting using anti-Flag and anti-BCL2 antibodies.
# Cellular viability was monitored with the cell viability assay (CellTiter-Glo®) on KMS-12-PE WT and G101V cell lines. The CellTiter-Glo® (CTG) Luminescent Cell Viability Assay (from Promega) is a homogeneous method to determine the number of viable cells in culture based on quantitation of the ATP present, which signals the presence of metabolically active cells.
# Dose response of compounds are performed with 10 mM stock solutions (DMSO), 11-points curve, in a 384-well compound plate. The assay plate is prepared by stamping 40 nL from compound dilution plate of all different concentrations (e.g. 10 mM to have final […] assay test) into a cell culture microplate, using Echo acoustic liquid handling (Labcyte, Beckman). 40 μl of cell solution is added and cells are incubated with compounds for 48 h at 37° C., 5% CO2. CTG was added to the cells (according to the manufacturer instructions) and luminescence intensity was recorded using the Pherastar plate reader (BMG).
# This assay provides in vitro cellular potency of the tested Bcl-2 inhibitors, measuring the C50, defined as the concentration needed to reach 50% of the cellular viability.
# [7] = Ki determined from IC50, read-out: TR_FRET EKI_Bcl2 WT
# [8] = Ki determined from IC50, read-out: TR_FRET EKI_Bcl2
Compound,"Ki [1, 7]",Ki [2],TR_FRET EKI G101V/WT selectivty ratio [3],Ki [4],Ki [5],TR_FRET EKI BCLxL/WT selectivty ratio [5],IC50 [6],"Ki [1, 8]",TR_FRET EKI G101V/WT selectivty [3],TR_FRET EKI BCLxL/WT selectivty [5]
"Cc1c(N(C(=O)c2cc(-c3cc4c(cc3C(=O)N3Cc5ccccc5C[C@H]3C)CN(C(=O)C(F)(F)c3ccc(N5CCN(C)CC5)cc3)CC4)n(C)c2C)c2ccc(O)cc2)cc(C#N)n1C [Example 26, N-(5-cyano-1,2-dimethylpyrrol-3-yl)-5-(2-{2,2-difluoro-2-[4-(4-methylpiperazin-1-yl)phenyl]acetyl}-7-{[(3R)-3-methyl-3,4-dihydro-1H-isoquinolin-2-yl]carbonyl}-3,4-dihydro-1H-isoquinolin-6-yl)-N-(4-hydroxyphenyl)-1,2-dimethylpyrrole-3-carboxamide]",1100 pM,5300 pM,4.8,830 pM,23200 pM,21.1,–,–,–,–
"Cc1c(N(C(=O)c2cc(-c3cc4c(cc3C(=O)N3Cc5ccccc5C[C@H]3CN3CCCCC3)CN(C(=O)C(F)(F)c3ccc(OCCN5CCOCC5)cc3)CC4)n(C)c2C)c2ccc(O)cc2)cc(C#N)n1C [Example 178, N-(5-cyano-1,2-dimethyl-pyrrol-3-yl)-5-[2-[2,2-difluoro-2-[4-(2-morpholinoethoxy)phenyl]acetyl]-7-[(3S)-3-(1-piperidylmethyl)-3,4-dihydro-1H-isoquinoline-2-carbonyl]-3,4-dihydro-1H-isoquinolin-6-yl]-N-(4-hydroxyphenyl)-1,2-dimethyl-pyrrole-3-carboxamide]",90 pM,1300 pM,15.3,160 pM,11900 pM,137.8,0.0109 µM,–,–,–
"Cc1c(C(=O)N(c2ccc(O)cc2)c2cc(C#N)n(C(F)F)c2C)cc(-c2cc3c(cc2C(=O)N2Cc4ccccc4C[C@H]2CN2CC4(CCC4)C2)CN(C(=O)Cc2ccc(OCCC4CCOCC4)cc2)CC3)n1C [Example 180, 5-[7-[(3S)-3-(2-azaspiro[3.3]heptan-2-ylmethyl)-3,4-dihydro-1H-isoquinoline-2-carbonyl]-2-[2-[4-(2-tetrahydropyran-4-ylethoxy)phenyl]acetyl]-3,4-dihydro-1H-isoquinolin-6-yl]-N-[5-cyano-1-(difluoromethyl)-2-methyl-pyrrol-3-yl]-N-(4-hydroxyphenyl)-1,2-dimethyl-pyrrole-3-carboxamide]",70 pM,300 pM,4.5,150 pM,17200 pM,252.5,0.0078 µM,–,–,–
"COc1ccc(N(C(=O)c2cc(-c3cc4c(cc3C(=O)N3Cc5ccccc5C[C@H]3CN3CC5(CCC5)C3)CN(C(=O)Cc3ccc(OCCN5CCOCC5)cc3F)CC4)n(C)c2C)c2ccc(O)cc2)cc1C#N [Example 181, 5-[7-[(3S)-3-(2-azaspiro[3.3]heptan-2-ylmethyl)-3,4-dihydro-1H-isoquinoline-2-carbonyl]-2-[2-[2-fluoro-4-(2-morpholinoethoxy)phenyl]acetyl]-3,4-dihydro-1H-isoquinolin-6-yl]-N-(3-cyano-4-methoxy-phenyl)-N-(4-hydroxyphenyl)-1,2-dimethyl-pyrrole-3-carboxamide]",40 pM,400 pM,9.9,90 pM,9000 pM,248.7,0.0194 µM,–,–,–
"Cc1cc(OCCN2CCOCC2)c(F)cc1CC(=O)N1CCc2cc(-c3cc(C(=O)N(c4ccc(O)cc4)c4cc(C#N)n(C)c4C)c(C)n3C)c(C(=O)N3Cc4ccccc4C[C@H]3CN3CCCCC3)cc2C1 [Example 223, N-(5-cyano-1,2-dimethyl-pyrrol-3-yl)-5-[2-[2-[5-fluoro-2-methyl-4-(2-morpholinoethoxy)phenyl]acetyl]-7-[(3S)-3-(1-piperidylmethyl)-3,4-dihydro-1H-isoquinoline-2-carbonyl]-3,4-dihydro-1H-isoquinolin-6-yl]-N-(4-hydroxyphenyl)-1,2-dimethyl-pyrrole-3-carboxamide]",180 pM,1600 pM,9.3,260 pM,4300 pM,24.6,–,–,–,–
"Cc1cc(OCCN2CCOCC2)c(F)cc1CC(=O)N1CCc2cc(-c3cc(C(=O)N(c4ccc(O)cc4)c4cc(C#N)n(C)c4C)c(C)n3C)c(C(=O)N3Cc4ccccc4C[C@H]3C)cc2C1 [Example 224, N-(5-cyano-1,2-dimethyl-pyrrol-3-yl)-5-[2-[2-[5-fluoro-2-methyl-4-(2-morpholinoethoxy)phenyl]acetyl]-7-[(3R)-3-methyl-3,4-dihydro-1H-isoquinoline-2-carbonyl]-3,4-dihydro-1H-isoquinolin-6-yl]-N-(4-hydroxyphenyl)-1,2-dimethyl-pyrrole-3-carboxamide]",–,800 pM,–,180 pM,1300 pM,–,–,73 pM,10.5,17.7
"Cc1cc(OCCN2CCOCC2)c(F)cc1CC(=O)N1CCc2cc(-c3cc(C(=O)N(c4ccccc4)c4cnn(C)c4)c(C)n3C)c(C(=O)N3Cc4ccccc4C[C@H]3C)cc2C1 [Example 225, 5-[2-[2-[5-fluoro-2-methyl-4-(2-morpholinoethoxy)phenyl]acetyl]-7-[(3R)-3-methyl-3,4-dihydro-1H-isoquinoline-2-carbonyl]-3,4-dihydro-1H-isoquinolin-6-yl]-1,2-dimethyl-N-(1-methylpyrazol-4-yl)-N-phenyl-pyrrole-3-carboxamide]",–,25600 pM,–,140 pM,23600 pM,–,–,110 pM,233.0,214.3
